Assay results: patent publication US9598391B2, “Substituted chroman compounds as calcium sensing receptor modulators” (LUPIN LIMITED, priority 2012, dated 2017)
Where a name gives a salt, the structure may show the parent alone.

These molecules were tested against T1, Calcium Sensing Receptor (CaSR) (Homo sapiens, UniProt P41180) (assay: In-vitro assay of calcimimetics through modulation of Calcium Sensing Receptor (intracellular calcium, FLIPR)). Settings: HEK293 cells stably expressing hCaSR, increase in intracellular calcium, Fluo4NW dye, 0.3 mM CaCl2, 8-point assay, read-out: EC50 Range.
T1 construct: expressed in transfected cells
T1 sequence (P41180 20-1078): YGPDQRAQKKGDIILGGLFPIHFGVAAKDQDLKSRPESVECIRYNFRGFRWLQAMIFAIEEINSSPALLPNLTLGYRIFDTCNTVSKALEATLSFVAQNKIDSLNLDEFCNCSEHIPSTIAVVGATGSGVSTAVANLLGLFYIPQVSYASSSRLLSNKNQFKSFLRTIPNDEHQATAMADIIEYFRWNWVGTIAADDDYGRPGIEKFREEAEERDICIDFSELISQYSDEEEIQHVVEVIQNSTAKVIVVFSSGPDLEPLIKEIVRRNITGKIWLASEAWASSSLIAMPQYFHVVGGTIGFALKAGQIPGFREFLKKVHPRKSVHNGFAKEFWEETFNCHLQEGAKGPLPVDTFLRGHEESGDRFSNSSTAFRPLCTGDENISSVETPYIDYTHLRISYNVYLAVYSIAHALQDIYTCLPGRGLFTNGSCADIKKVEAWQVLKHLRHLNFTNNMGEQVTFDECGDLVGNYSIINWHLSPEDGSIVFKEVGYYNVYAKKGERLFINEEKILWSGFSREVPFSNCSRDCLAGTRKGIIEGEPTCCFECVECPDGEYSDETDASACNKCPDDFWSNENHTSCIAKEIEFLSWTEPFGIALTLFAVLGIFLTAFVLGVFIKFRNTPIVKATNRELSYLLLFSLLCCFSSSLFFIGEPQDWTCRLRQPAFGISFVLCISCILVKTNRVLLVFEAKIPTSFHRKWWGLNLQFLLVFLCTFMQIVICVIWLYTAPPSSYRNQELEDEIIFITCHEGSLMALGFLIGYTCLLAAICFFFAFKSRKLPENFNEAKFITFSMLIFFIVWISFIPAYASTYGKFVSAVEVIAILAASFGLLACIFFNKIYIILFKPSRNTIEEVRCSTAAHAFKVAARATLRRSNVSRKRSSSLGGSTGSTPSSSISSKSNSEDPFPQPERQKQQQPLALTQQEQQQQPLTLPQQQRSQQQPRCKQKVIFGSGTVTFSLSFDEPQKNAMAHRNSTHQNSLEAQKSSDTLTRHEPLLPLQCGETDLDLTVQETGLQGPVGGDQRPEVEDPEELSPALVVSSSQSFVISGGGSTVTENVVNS
Type: cell-based
Protocol: In-vitro assay method of Calcimimetics through modulation of Calcium Sensing Receptor (CaSR):
The ability of the compounds to modulate Calcium sensing receptor is determined by measuring an increase in intracellular calcium [Ca^2+]i. Stably transfected HEK293 cells expressing hCaSR_pTriEx-3 hygro vector are developed. Cells are grown overnight on a 96-well plate to 80% confluency in Ham's F12 containing 20% FBS at 37° C., 5% CO2. Subsequently, cells are washed extensively with 20 mM HEPES buffer containing 126 mM […], 1 mM MgCl2 and 4 mM KCl to remove serum components that might interfere with the assay. Cells are loaded with calcium sensing Fluo4NW dye in HEPES base buffer containing 0.1% BSA and 1 mg/ml glucose for 30 minutes to measure changes in intracellular calcium. The activities of the compounds are measured in FLIPR using 0.3 mM CaCl2 in 20 mM HEPES base buffer. The effectiveness of the compound to modulate receptor activity is determined by calculating the EC50 responses for that compound in an 8-point assay and plotted using GraphPad Prism 5.

EC50 | Compound
< 20 nM | C[C@@H](NCCC[C@H]1C[C@@H](c2ccc(C(=O)O)cc2)c2ccccc2O1)c1ccc(F)c2ccccc12 [Example 136, 4-((2S,4S)-2-(3-(((R)-1-(4-Fluoronaphthalen-1-yl)ethyl)amino)propyl)chroman-4-yl)benzoic acid hydrochloride]
20 to 50 nM | C[C@@H](NC[C@H]1C[C@@H](c2ccc(CC(=O)O)cc2)c2ccccc2O1)c1cccc2ccccc12 [Example 107b, 2-(4-((2R,4S)-2-((((R)-1-(Naphthalen-1-yl)ethyl)amino)methyl)chroman-4-yl)phenyl)acetic acid hydrochloride]
50 to 200 nM | C[C@@H](NC[C@H]1C[C@@H](c2ccc(C(=O)O)cc2)c2ccccc2O1)c1cccc2ccccc12 [Example 98b, 4-((2R,4S)-2-((((R)-1-(Naphthalen-1-yl)ethyl)amino)methyl)chroman-4-yl)benzoic acid hydrochloride]
< 20 nM | C[C@@H](NC[C@H]1C[C@@H](c2ccc(C(=O)O)c(F)c2)c2ccccc2O1)c1cccc2ccccc12 [Example 104, 2-Fluoro-4-((2R,4S)-2-((((R)-1-(naphthalen-1-yl)ethyl)amino)methyl)chroman-4-yl)benzoic acid hydrochloride]
50 to 200 nM | COc1cc([C@@H](C)NC[C@H]2C[C@@H](c3ccc(C)c(C(=O)O)c3)c3ccccc3O2)ccc1F [Example 116, 5-((2R,4S)-2-((((R)-1-(4-Fluoro-3-methoxyphenyl)ethyl)amino)methyl)chroman-4-yl)-2-methyl benzoic acid hydrochloride]
< 20 nM | C[C@@H](NC[C@H]1C[C@@H](c2cccc(C(=O)NCC(=O)O)c2)c2ccccc2O1)c1cccc2ccccc12 [Example 140, 2-(3-((2R,4S)-2-((((R)-1-(Naphthalen-1-yl)ethyl)amino)methyl)chroman-4-yl)benzamido) acetic acid hydrochloride]
